Data taken from publication PMC5711494, “Sterol methyltransferase a target for anti-amoeba therapy: towards transition state analog and suicide substrate drug design” (Journal of Lipid Research, 2017).
“Also recorded” adds a separate entry of the source.

Columns and labels:
[1] = biological target: Ac28-SMT (sterol 28-methyltransferase, SMT2) (Acanthamoeba castellanii, UniProt L8GKC5); assay: Inhibition of recombinant Ac28-SMT assayed with native substrate 24(28)-methylene lophenol and [methyl-3H3]SAM; format: biochemical
Procedure: (§1) The SMT constructs were transformed into competent BL21(DE3) cells and transformants selected against 100 µg/ml ampicillin. Expression of the SMT constructs and partial purification of the recombinant proteins followed the procedure described previously ([19]). Briefly, a single colony for 24-SMT and 28-SMT were grown overnight in an orbital shaker (250–300 rpm) at 37°C in Luria broth containing ampicillin and then reinoculated in fresh medium at 1 in 10 dilution. […] In one tube, cells were induced by addition of isopropyl thio-galactoside at a final concentration of 1 mM and in the other tube, were un-induced. Cells were harvested 2 and 4 h after induction and an equal number of cells (as calculated by OD @600 nm) from induced (+) and un-induced (−) cultures were boiled with 1X Laemmli’s buffer and analyzed by SDS-PAGE (12%). […] Total protein concentrations were determined by Bradford dye-binding procedure with bovine γ-globulin as standard. […] Incubation mixtures were saponified with methanolic potassium hydroxide and extracted with hexane (3 × 1 ml) and concentrated to dryness providing the nonsaponifiable lipid fraction; radioactivity was determined by liquid scintillation counting. […] Controls containing radioactive SAM and no sterol used to background subtract radioactivity in these treatments was less than 500 dpm. […]

[2] = biological target: Ac24-SMT (sterol 24-methyltransferase, SMT1) (Acanthamoeba castellanii, UniProt L8GNG7); assay: Inhibition of recombinant Ac24-SMT assayed with native substrate cycloartenol and [methyl-3H3]SAM; format: biochemical; conditions: read-out: Ki against 24-SMT (competitive inhibitor); assayed with natural substrate
Procedure: as §1

[3] = tested on: Acanthamoeba castellanii trophozoites (strain ATCC 30010); assay: Ac trophozoite growth inhibition and minimum amoebicidal concentration (trypan blue exclusion); format: cell-based; conditions: 48 h incubation
Procedure: Ac strain ATCC 30010 was inoculated (1 × 10^4 cells/ml) into tissue culture T-25 ml flasks, prepared with ATTC media 712 and cultured axenically in 5 ml medium at 25°C. Continuous cultures populated by trophozoites ([…]; the remaining cells were cysts) was maintained by sub-culturing 4–5 day growth arrested cells (1 × 10^6 cells/ml) into fresh medium. Steroidal inhibitor and azole susceptibility assays were performed in 24-well (4 × 6) microtiter plates (3 ml total). Trophozoite assay conditions and preparation of stock solutions made to 1 μg/10 μl and 1 μg/100 μl in DMSO through serial dilution to achieve final inhibitor concentrations of 64, 32, 16, 8, 4, 2, 1, 0.5, 0.25, 0.125, 0.0625, and 0.03125 µg/ml in 1% DMSO as reported previously for voriconazole incubated with Ac ([25]). Growth curves to evaluate treated trophozoites were initiated with 1 × 10^6 cells/ml and incubated for 48 h. Cell number was calculated with the use of a hemocytometer. The percentage of viable trophozoites following exposure to different concentrations of inhibitors was determined by the standard trypan blue exclusion method. Cells stained blue were considered nonviable. […] The IC50 of inhibitors against trophozoite growth was evaluated using GraphPad Prism with default setting (GraphPad Software Inc., CA).

Ac24-SMT = assay: Covalent labeling of Ac24-SMT with DHL and 3H-SAM, SDS-PAGE gel slice counting; format: binding, Acanthamoeba castellanii; conditions: 45 min, 35°C, SDS-PAGE gel slices
Procedure: For 24-SMT labeling, partially pure recombinant enzyme obtained from 0.25 salt gradient fraction after Q-chromatography and desalted with buffer exchange (as reported in reference) was generated as a reference specimen of cloned SMT migrating at ∼39 kDa indicated by a protein ladder (Bio-Rad). Protein was stained with Coomassie Brilliant Blue R 250. […] After filtration and concentration, 22 µg total protein was loaded on 12% SDS-PAGE gel against a protein ladder (Bio-Rad) that ranged from 15 to 100 kDa. Next, five bands were excised from the gel corresponding to approximate molecular masses that range between 1) 15–25 kDa, 2) 25–35 KDa, 3) 35–45 kDa, 4) 45–55 kDa, and 5) 55–75 kDa, placed into a vial of 50% hydrogen peroxide, and left overnight at 60°C for digestion ([29]). To these vials was added scintillant and the radioactivity (^3H in dpm) measured by liquid scintillation counting.

Ac28-SMT = assay: Substrate kinetics and product analysis with recombinant Ac28-SMT; format: biochemical, Acanthamoeba castellanii; conditions: incubated with SAM cosubstrate
Procedure: The SMT constructs were transformed into competent BL21(DE3) cells and transformants selected against 100 µg/ml ampicillin. Expression of the SMT constructs and partial purification of the recombinant proteins followed the procedure described previously ([19]). […] In one tube, cells were induced by addition of isopropyl thio-galactoside at a final concentration of 1 mM and in the other tube, were un-induced. Cells were harvested 2 and 4 h after induction and an equal number of cells (as calculated by OD @600 nm) from induced (+) and un-induced (−) cultures were boiled with 1X Laemmli’s buffer and analyzed by SDS-PAGE (12%). Gel was stained with Coomassie Brilliant Blue (0.2%) to establish the molecular weight and purity of the expressed protein. Total protein concentrations were determined by Bradford dye-binding procedure with bovine γ-globulin as standard. To determine the catalytic activity of the recombinant proteins, enzyme assays were carried out using soluble bacterial extract (100,000 g fraction) in 9 ml test tubes containing a total of 600 µl assay volume for 45 min (initial velocity conditions). The assay buffer contained 20 mM phosphate buffer in 5% (v/v) glycerol at pH 7.5, sterol acceptor emulsified in 12 µl Tween 80 (1.2 g/l), and the substrate tested over the concentration range 5 to 150 µM against 1.2 mg of total protein. The reaction was initiated by the addition of saturating levels of [methyl-^3H3]SAM, 0.9 µCi, at 150 µM. Incubation mixtures were saponified with methanolic potassium hydroxide and extracted with hexane (3 × 1 ml) and concentrated to dryness providing the nonsaponifiable lipid fraction; radioactivity was determined by liquid scintillation counting. […]

Chain of Ac28-SMT (sterol 28-methyltransferase, SMT2) (L8GKC5 entry or part of it): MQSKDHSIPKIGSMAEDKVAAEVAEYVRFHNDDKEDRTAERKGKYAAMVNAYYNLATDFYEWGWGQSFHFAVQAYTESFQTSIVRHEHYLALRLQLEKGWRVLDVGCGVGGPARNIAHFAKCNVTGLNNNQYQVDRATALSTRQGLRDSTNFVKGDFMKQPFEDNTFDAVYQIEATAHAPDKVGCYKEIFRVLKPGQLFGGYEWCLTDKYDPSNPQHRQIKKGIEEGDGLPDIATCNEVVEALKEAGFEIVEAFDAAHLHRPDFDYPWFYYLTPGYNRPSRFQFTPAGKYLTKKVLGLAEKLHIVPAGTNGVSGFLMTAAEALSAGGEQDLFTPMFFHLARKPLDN
Chain of Ac24-SMT (sterol 24-methyltransferase, SMT1) (L8GNG7 entry or part of it): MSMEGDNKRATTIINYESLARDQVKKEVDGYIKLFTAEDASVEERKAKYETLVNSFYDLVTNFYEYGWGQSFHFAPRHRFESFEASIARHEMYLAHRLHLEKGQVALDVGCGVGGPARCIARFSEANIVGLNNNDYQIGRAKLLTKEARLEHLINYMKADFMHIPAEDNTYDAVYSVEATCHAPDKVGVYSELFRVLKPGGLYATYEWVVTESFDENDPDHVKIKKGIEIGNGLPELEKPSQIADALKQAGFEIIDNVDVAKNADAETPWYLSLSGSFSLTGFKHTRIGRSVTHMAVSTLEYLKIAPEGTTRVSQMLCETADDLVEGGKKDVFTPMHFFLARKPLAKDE

## CC(CCC=C1CC1)C1CC[C@@]2(C)C3=C(CCC12C)C1(C)CCC(O)C(C)(C)C1CC3 (stereo partly shown) [DHL, 26,27-dehydrolanosterol]
[1]
  kinact/Ki against 28-SMT: effectively zero
[1]; read-out: Ki against 28-SMT (competitive inhibitor), assayed with natural substrate
  Ki: 54 µM
[2]
  Ki: 16 µM
[3]
  MAC (complete inhibition of growth, minimum amoebicidal concentration): 15 µM
[3]; Acanthamoeba castellanii, ATCC30010, Ac trophozoites
  IC50: 6 µM
Ac24-SMT
  radioactivity associated with protein band of ∼39 kDa: < 90%
Ac28-SMT
  activity / methyl product formation as substrate of Ac28-SMT: not productively bound; also recorded: no activity was observed; also recorded: no methyl products were detected
